Test system: hepatocytes
Experiment: Seq-Well scRNA-Seq of hepatocytes after APAP overdose (signature scores, DEG vs untreated)
Format: in vivo, mouse
Conditions: A96 vs untreated (UT)

## CC(=O)Nc1ccc(O)cc1 [APAP, acetaminophen]
  Ces1d avg_logFC: 0.4277
  Ces1d pct.1: 0.977
  Chchd10 avg_logFC: 0.608
  Chchd10 pct.1: 0.994
  Chp1 avg_logFC: 0.2687
  Chp1 pct.1: 0.687
  Cox5a avg_logFC: 0.3398
  Cox5a pct.1: 0.813
  Cox6a1 avg_logFC: 0.2517
  Cox6a1 pct.1: 0.943
  Cox8a avg_logFC: 0.3089
  Cox8a pct.1: 0.737
  Cp avg_logFC: 0.2826
  Cp pct.1: 0.993
  Cpeb4 avg_logFC: 0.3418
  Cpeb4 pct.1: 0.527
  Cpox avg_logFC: 0.3326
  Cpox pct.1: 0.634
  Cpt1a avg_logFC: 0.3742
  Cpt1a pct.1: 0.837
  Crat avg_logFC: 0.2624
  Crat pct.1: 0.389
  Creg1 avg_logFC: 0.2586
  Creg1 pct.1: 0.985
  Crot avg_logFC: 0.3326
  Crot pct.1: 0.989
  Csde1 avg_logFC: 0.2567
  Csde1 pct.1: 0.742
  Ctage5 avg_logFC: 0.3217
  Ctage5 pct.1: 0.837
  Cxcl12 avg_logFC: 0.3372
  Cxcl12 pct.1: 0.635
  Cyp4a10 avg_logFC: 1.12
  Cyp4a10 pct.1: 0.974
  Cyp4a14 avg_logFC: 1.601
  Cyp4a14 pct.1: 0.975
  D4Wsu53e avg_logFC: 0.3032
  D4Wsu53e pct.1: 0.597
  D17Wsu92e avg_logFC: 0.3581
  D17Wsu92e pct.1: 0.771
  Ddx3x avg_logFC: 0.2899
  Ddx3x pct.1: 0.701
  Decr1 avg_logFC: 0.3241
  Decr1 pct.1: 0.808
  Decr2 avg_logFC: 0.3728
  Decr2 pct.1: 0.813
  Dennd5b avg_logFC: 0.2871
  Dennd5b pct.1: 0.548
  Dhcr24 avg_logFC: 0.3842
  Dhcr24 pct.1: 0.933
  Dhdh avg_logFC: 0.2837
  Dhdh pct.1: 0.734
  Dpys avg_logFC: 0.2626
  Dpys pct.1: 0.824
  Dusp6 avg_logFC: 0.3249
  Dusp6 pct.1: 0.476
  Ei24 avg_logFC: 0.2718
  Ei24 pct.1: 0.667
  Eif4g2 avg_logFC: 0.2838
  Eif4g2 pct.1: 0.812
  Elovl5 avg_logFC: 0.3232
  Elovl5 pct.1: 0.765
  Erbb2ip avg_logFC: 0.2553
  Erbb2ip pct.1: 0.561
  Etfdh avg_logFC: 0.2802
  Etfdh pct.1: 0.811
  F5 avg_logFC: 0.3557
  Fmo1 avg_logFC: 0.264
  Fmo1 pct.1: 0.606
  Fth1 avg_logFC: 0.3226
  Fth1 pct.1: 0.993
  G0s2 avg_logFC: 0.2947
  G0s2 pct.1: 0.525
  Gabarapl1 avg_logFC: 0.2984
  Gabarapl1 pct.1: 0.881
  Gclc avg_logFC: 0.2707
  Gclc pct.1: 0.839
  Gclm avg_logFC: 0.3282
  Gclm pct.1: 0.865
  Gfra1 avg_logFC: 0.2571
  Gfra1 pct.1: 0.687
  Gm2a avg_logFC: 0.3164
  Gm2a pct.1: 0.587
  Gm13775 avg_logFC: −1.05
  Gm13775 pct.1: 0.3
  Gpld1 avg_logFC: 0.3039
  Gpld1 pct.1: 0.748
  Grn avg_logFC: 0.3731
  Grn pct.1: 0.629
  Gsta2 avg_logFC: 0.3111
  Gsta2 pct.1: 0.522
  Gstm3 avg_logFC: −0.5668
  Gstm3 pct.1: 0.23
  Gstt3 avg_logFC: 0.3379
  Gstt3 pct.1: 0.541
  Gyk avg_logFC: 0.4334
  Gyk pct.1: 0.616
  Hadh avg_logFC: 0.2626
  Hadh pct.1: 0.774
  Hamp2 avg_logFC: 0.3052
  Hamp2 pct.1: 0.203

— patent publication US20230053540A1, “TREATMENT OF LIVER INJURY” (Massachusetts Institute of Technology, priority 2019, published 2023)
